Measurements as given in article PMC6009858, “Tricyclic coumarin sulphonate derivatives with alkaline phosphatase inhibitory effects: in vitro and docking studies” (Journal of Enzyme Inhibition and Medicinal Chemistry, 2018).

Key:
[1] = target: T1, human tissue nonspecific alkaline phosphatase (h-TNAP) (Homo sapiens, UniProt P05186); assay: Alkaline phosphatase inhibition assay (h-TNAP), CDP-star luminescence; type: biochemical; settings: for IC50: IC50 ± SEM, n = 3, DEA buffer; for selectivity h-TNAP over h-IAP (in words): h-TNAP versus h-IAP
T1 sequence (P05186 18-524): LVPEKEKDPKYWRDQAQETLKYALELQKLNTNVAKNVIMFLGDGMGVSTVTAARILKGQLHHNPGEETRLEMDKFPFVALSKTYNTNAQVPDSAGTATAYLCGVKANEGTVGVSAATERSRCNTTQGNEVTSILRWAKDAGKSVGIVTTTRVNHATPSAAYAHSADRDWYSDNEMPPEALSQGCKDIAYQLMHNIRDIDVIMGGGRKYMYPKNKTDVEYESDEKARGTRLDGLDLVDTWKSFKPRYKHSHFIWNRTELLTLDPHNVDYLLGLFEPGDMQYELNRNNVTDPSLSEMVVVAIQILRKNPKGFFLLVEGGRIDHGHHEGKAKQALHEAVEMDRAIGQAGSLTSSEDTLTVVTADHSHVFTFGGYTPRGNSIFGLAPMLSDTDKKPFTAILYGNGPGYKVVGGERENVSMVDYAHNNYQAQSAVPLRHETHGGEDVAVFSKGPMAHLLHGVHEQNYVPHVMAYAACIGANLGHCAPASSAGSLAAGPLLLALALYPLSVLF
Procedure: The inhibition assay was performed by following the already reported method[18] and the inhibitory activity was measured at the final concentration of 200 µM in diethanolamine (DEA) buffer as discussed in our published article. The first step of the inhibition assay was the treatment of 10 µl of tested derivatives with 20 µl of h-TNAP (46 ng/well) or of h-IAP (57 ng/well). […] Then, 20 µl of CDP-star® substrate was added to each reaction mixture and signals were again measured as after-read, after 15–20 min of incubation. The data were scrutinised by PRISM 5.0 (GraphPad, San Diego, CA) software and the inhibitory concentration values (IC50 values) were attained as discussed earlier.

[2] = target: T2, human intestinal alkaline phosphatase (h-IAP) (Homo sapiens, UniProt P09923); assay: Alkaline phosphatase inhibition assay (h-IAP), CDP-star luminescence; type: biochemical; settings: for IC50: IC50 ± SEM, n = 3, DEA buffer
T2 sequence (P09923 20-528): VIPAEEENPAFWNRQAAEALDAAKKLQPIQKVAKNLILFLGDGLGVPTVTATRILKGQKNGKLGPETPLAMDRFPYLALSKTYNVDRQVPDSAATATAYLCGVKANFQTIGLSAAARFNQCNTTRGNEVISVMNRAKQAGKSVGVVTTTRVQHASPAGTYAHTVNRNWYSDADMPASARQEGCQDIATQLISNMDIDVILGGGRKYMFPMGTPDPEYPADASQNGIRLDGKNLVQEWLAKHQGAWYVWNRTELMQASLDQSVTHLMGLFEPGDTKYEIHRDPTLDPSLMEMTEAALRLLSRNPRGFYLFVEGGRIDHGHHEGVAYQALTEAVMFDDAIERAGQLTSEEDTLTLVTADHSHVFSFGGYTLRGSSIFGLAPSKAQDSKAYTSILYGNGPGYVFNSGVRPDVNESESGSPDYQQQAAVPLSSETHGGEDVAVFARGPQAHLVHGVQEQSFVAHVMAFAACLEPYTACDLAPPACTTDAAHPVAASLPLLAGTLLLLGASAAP
Procedure: The inhibition assay was performed by following the already reported method[18] and the inhibitory activity was measured at the final concentration of 200 µM in diethanolamine (DEA) buffer as discussed in our published article. The first step of the inhibition assay was the treatment of 10 µl of tested derivatives with 20 µl of h-TNAP (46 ng/well) or of h-IAP (57 ng/well). The plates were incubated at 37 °C for 5–10 min, and luminescence signals were recorded by microplate reader (BioTek FLx800, Instruments, Inc., Winooski, VT). Then, 20 µl of CDP-star® substrate was added to each reaction mixture and signals were again measured as after-read, after 15–20 min of incubation. The data were scrutinised by PRISM 5.0 (GraphPad, San Diego, CA) software and the inhibitory concentration values (IC50 values) were attained as discussed earlier.

colon cancer cell line = system: colon cancer cell line; parameters: method as in PMID 24360561, PMID 25016229, PMID 27779319; settings: previously reported data; cited from earlier work
[3] = parameters: method as in PMID 24360561, PMID 25016229, PMID 27779319; settings: previously reported data; cited from earlier work

Row | SMILES | IC50 [1] [µM] | IC50 [2] [µM] | further results
1 | O=c1oc2cc(OS(=O)(=O)c3ccccc3)ccc2c2c1CCCCCC2 [Compound 1l] | 1.13 ± 0.21 | 2.82 ± 0.82 | 
2 | CCCS(=O)(=O)Oc1ccc2c3c(c(=O)oc2c1)CCCCCC3 [Compound 1k] | 1.91 ± 0.11 | 3.37 ± 0.79 | 
3 | CCCS(=O)(=O)Oc1cc2oc(=O)c3c(c2cc1OC)CCCCCC3 [Compound 1r] | 2.6 ± 0.49 | 0.75 ± 0.07 | 
4 | CCS(=O)(=O)Oc1ccc2c3c(c(=O)oc2c1)CCCCC3 [Compound 1b] | 2.13 ± 0.19 | 2.71 ± 0.23 | 
5 | CCCS(=O)(=O)Oc1ccc2c3c(c(=O)oc2c1)CCCCC3 [Compound 1c] | 1.52 ± 0.17 | 0.91 ± 0.06 | 
6 | Cc1ccc(S(=O)(=O)Oc2cc3oc(=O)c4c(c3cc2Cl)CCCCC4)cc1 [Compound 1za] | 2.22 ± 0.27 | 1.11 ± 0.01 | 
7 | CCS(=O)(=O)Oc1ccc2c3c(c(=O)oc2c1)CCCCCC3 [Compound 1j] | 1.74 ± 0.14 | 0.84 ± 0.09 | 
8 | O=c1oc2cc(OS(=O)(=O)c3ccccc3)c(Cl)cc2c2c1CCCCC2 [Compound 1z] | 5.73 ± 1.06 | > 100 | selectivity h-TNAP over h-IAP (in words) [1]: selective inhibitors of h-TNAP; activity towards h-IAP (in words) [2]: inactive
9 | COc1cc2c3c(c(=O)oc2cc1OS(=O)(=O)c1ccccc1)CCCCCC3 [Compound 1t] | 2.68 ± 0.18 | 0.83 ± 0.06 | 
10 | COc1cc2c3c(c(=O)oc2cc1OS(=O)(=O)c1ccc(C(F)(F)F)cc1)CCCCCC3 [Compound 1x] | 1.29 ± 0.12 | 1.63 ± 0.19 | 
11 | O=c1oc2cc(OS(=O)(=O)c3ccc(F)cc3)ccc2c2c1CCCCC2 [Compound 1i] | 1.06 ± 0.11 | 0.45 ± 0.09 | melting point: 147 to 149 °C; antiproliferative effect against colon cancer cell line (in words) (colon cancer cell line): strongest antiproliferative derivatives; anti-inflammatory effects (in words) [3]: maximum anti-inflammatory effects
12 | COc1cc2c3c(c(=O)oc2cc1OS(=O)(=O)c1ccc(C)cc1)CCCCCC3 [Compound 1v] | 0.64 ± 0.02 | 1.45 ± 0.04 | 
13 | Cc1ccc(S(=O)(=O)Oc2ccc3c4c(c(=O)oc3c2)CCCCC4)cc1 [Compound 1f] | 0.38 ± 0.01 | 1.94 ± 0.11 | 
14 | COc1cc2c3c(c(=O)oc2cc1OS(=O)(=O)c1ccc(C)cc1)CCCCC3 [Compound 1u] | 1.65 ± 0.13 | 0.79 ± 0.05 | 
15 | O=c1oc2cc(OS(=O)(=O)c3ccccc3)ccc2c2c1CCCCC2 [Compound 1e] | 8.57 ± 0.73 | 1.84 ± 0.19 | 
16 | CCCS(=O)(=O)Oc1cc2oc(=O)c3c(c2cc1OC)CCCCC3 [Compound 1q] | 4.31 ± 0.99 | > 100 | selectivity h-TNAP over h-IAP (in words) [1]: selective inhibitors of h-TNAP
17 | N[C@@H](Cc1ccccc1)C(=O)O [L-Phenylalanine, reference compound] |  | 100 | 
18 | CS(=O)(=O)Oc1cc2oc(=O)c3c(c2cc1Cl)CCCCC3 [Compound 1y] | > 100 | > 100 | activity towards h-IAP (in words) [2]: inactive
19 | COc1cc2c3c(c(=O)oc2cc1OS(=O)(=O)c1ccc(C(F)(F)F)cc1)CCCCC3 [Compound 1w] | > 100 | > 100 | 
20 | COc1cc2c3c(c(=O)oc2cc1OS(C)(=O)=O)CCCCC3 [Compound 1o] | 1.21 ± 0.11 | 11.8 ± 1.91 | 
21 | COc1cc2c3c(c(=O)oc2cc1OS(=O)(=O)c1ccccc1)CCCCC3 [Compound 1s] | 1.26 ± 0.07 | 3.88 ± 0.32 | 
22 | COc1cc2c3c(c(=O)oc2cc1OS(C)(=O)=O)CCCCCC3 [Compound 1p] | 1.49 ± 0.13 | 1.51 ± 0.17 | 
23 | Cc1ccc(S(=O)(=O)Oc2ccc3c4c(c(=O)oc3c2)CCCCCC4)cc1 [Compound 1m] | 1.59 ± 0.16 | 2.12 ± 0.23 | antiproliferative effect against colon cancer cell line (in words) (colon cancer cell line): strongest antiproliferative derivatives; anti-inflammatory effects (in words) [3]: maximum anti-inflammatory effects
24 | CS(=O)(=O)Oc1ccc2c3c(c(=O)oc2c1)CCCCC3 [Compound 1a] | 0.48 ± 0.01 | 1.98 ± 0.19 | 
25 | O=c1oc2cc(OS(=O)(=O)C3CC3)ccc2c2c1CCCCC2 [Compound 1d] | 0.98 ± 0.13 | 0.96 ± 0.08 | 
